According to patent US20220064141A1, “BENZOPYRIDONE HETEROCYCLIC COMPOUND AND USE THEREOF” (BrightGene Bio-Medical Technology Co., Ltd., priority 2019, published 2022):

Legend:
[1] = test system: A549 human non-small cell lung cancer cells with high expression of KRAS G12S; assay: Cell Titer-Glo cell viability, A549 cells (72 h); format: cell-based
From the text: Effect Example 2: Pharmacodynamic Assay 2 (Determination of the efficacy of the compounds of the present disclosure on HCT116 human colon cancer cells with high expression of KRAS G13D and A549 human non-small cell lung cancer cells with high expression of KRAS G12S)
The following method was used to determine the effects of the compounds of the present disclosure on tumor cell proliferation.
For KRAS G13D subtype, HCT116 human colon cancer cell was used. For KRAS G12S subtype, A549 human non-small cell lung cancer cell was used. The efficacy of the compounds in inhibiting cancer cell viability was determined. HCT116 cells or A549 cells were cultured in a DMEM medium containing 10% fetal bovine serum, 100 U penicillin and […] streptomycin. The cells were cultured in an incubator with 5% CO2 at 37° C. Cancer cell viability was evaluated by determining the content of ATP with Cell Titer-Glo® kit (Luminescent Cell Viability Assay kit, please refer to the manufacturer's instructions for use) and evaluating the inhibition of cell growth.
The experimental method was proceeded in accordance with the steps in the instructions for the kit, and was described briefly as follows. The test compounds were first dissolved in DMSO to prepare stock solutions, and then the stock solutions were subjected to gradient dilution with the culture media of the corresponding cells, thereby preparing test samples. The final concentrations of the compounds were in the range of 30 μM to 0.01 nM. Tumor cells in logarithmic growth phase were seeded into a 96-well cell culture plate at an appropriate density. After the cell culture plate was left overnight in an incubator with 5% CO2 at 37° C., the test compound samples were added thereto and then the cells were further cultured for 72 hours. After the incubation was complete, an appropriate volume of Cell Titer-Glo® reagent was added into each well, and the cells were incubated at 37° C. for 1 to 4 hours. Then, the […] was read on a microplate reader. The percentage inhibition rates of the compounds at each concentration point were calculated by comparing the absorbance values of the sample wells with that of the control group (0.3% DMSO), and then non-linear regression analysis of the concentration of the compound vs inhibition rate was performed by using GraphPad Prism 5 software, thereby obtaining IC50 values indicating the inhibitory effects of the compounds on cell proliferation.

[2] = Pharmacokinetic experiment in male CD-1 mice (IV and PO); format: in vivo
Experimental: Effect Example 3: Pharmacokinetic Experiment
(1) Compound I-2-2 of the present disclosure prepared in the above Example was used to be formulated into a clear solution (0.3 mg/mL) (2% DMSO+30% PEG 300+2% Tween 80+66% H2O) as a drug for oral administration; and was used to be formulated into a clear solution (0.2 mg/mL) (2% DMSO+30% PEG 300+2% Tween 80+66% H2O) as a drug for intravenous administration.
(2) Male CD-1 mice (three mice in each group, weighing 27 g to 28 g) were provided by Shanghai Slack Laboratory Animal Co., Ltd. The test mice were given an environmental accommodation period of 2 to 4 days before the experiment. The mice were fasted for 8 to 12 hours before administration, and they were provided access to water (2 hours after administration) and food (4 hours after administration).
(3) 12 hours after the mice were fasted but had free access to water, blank plasma at time 0 was taken.
(4) The mice in step 1) were taken; and they were orally (PO) administered 3 mg/kg of the compound to be tested, or intravenously (IV) administered 1 mg/kg of the compound to be tested.
(5) At 5 min, 15 min, 30 min, 1 h, 2 h, 4 h, 8 h, 10 h, and 24 h after oral administration, blood was successively taken from the fundus oculi venous plexus and placed in EP tubes with heparin. After centrifugation at 8000 rpm/min for 5 min, the plasma in upper layer was collected and frozen at −20° C., waiting for LC-MS/MS analysis.
(6) WinNonlin software was used to calculate the pharmacokinetic parameters based on the blood concentration-time data obtained in […]).

[3] = test system: MIAPaCa-2 human-derived pancreatic cancer cells; assay: In-vivo pharmacodynamic experiment, MIAPaCa-2 subcutaneous xenograft in BALB/c nude mice; conditions: for TGI (%) / TIC / Tumor volumes (mm^3) (Day 23): Day 23; for Tumor volumes (mm^3) (Day 0): baseline
From the text: Effect Example 4: In-Vivo Pharmacodynamic Experiment
Purpose of the experiment: To evaluate the anti-tumor effect of the test drug in female BALB/c nude mice model subcutaneously xenografted with MIAPaCa-2 human-derived pancreatic cancer cells.
(§1) Experimental operation: BALB/c nude mice, female, 6- to 8-weeks old, weighing about 17.6 g to 21.1 g. Each mouse was subcutaneously inoculated with 5×10^6 MIAPaCa-2 cells (with Matrigel; the volume ratio was 1:1) in the right flank. The administration was initiated when the average tumor volume reached about 100 cubic millimeters. The test compounds were orally administered daily by intragastric injection (6 mice in each group) for a total of 16 or 23 days. Tumor volumes were measured three times a week. The volume was measured in cubic millimeters and calculated by the following formula: tumor volume (mm^3)=½×(a×b^2) (where a represented the long diameter and b represented the short diameter). The anti-tumor efficacy of the compound was evaluated by TGI (%).The calculation formula was as follows: TGI %=(1−T/C)×100% (T and C were the relative tumor volumes (RTV) of a mouse in the treatment group and a mouse in the control group at a specific time point), respectively. Safety was evaluated according to the changes of the body weight of the animals and animal deaths.

[4] = Safety by body weight change and animal deaths in the MIAPaCa-2 xenograft study; format: in vivo; conditions: for Weight at the Initiation of Administration: baseline
Experimental: as §1

[5] = oral daily 30 mg/kg (Day 0 to Day 9) + 15 mg/kg (Day 10 to Day 16)
[6] = oral daily 100 mg/kg (Day 0 to Day 9) + 50 mg/kg (Day 10 to Day 16) + 100 mg (Day 17 to Day 23)
[7] = 30 mg/kg (Day 0 to Day 9) + 15 mg/kg (Day 10 to Day 16)
[8] = 100 mg/kg (Day 0 to Day 9) + 50 mg/kg (Day 10 to Day 16) + 100 mg (Day 17 to Day 23)

C=CC(=O)N1CCN(c2c(C#N)c(=O)n(-c3ccccc3C(C)C)c3cc(-c4c(C)ccc5[nH]ncc45)c(Cl)cc23)[C@@H](C)C1 (single isomer, unassigned) [Compound I-2-2]
IC50 [1]: > 3000 nM | F ([2]; PO 3 mg/kg): 18.9% | AUC ([2]; mouse, plasma, IV 1 mg/kg): 867 ng·h/mL | Vd ([2]; mouse, plasma, IV 1 mg/kg): 1.17 L/kg | clearance ([2]; mouse, plasma, IV 1 mg/kg): 16.7 mL/min/kg | half-life ([2]; mouse, plasma, IV 1 mg/kg): 43.1 min | AUC ([2]; mouse, plasma, PO 3 mg/kg): 479 ng·h/mL | Cmax ([2]; mouse, plasma, PO 3 mg/kg): 220 ng/mL | Tmax ([2]; mouse, plasma, PO 3 mg/kg): 60 min | TGI (%) [3, 5]: 36.25% | TIC [3, 5]: 63.75 | Tumor volumes (mm^3) (Day 23) [3, 5]: 438.75 mm^3 | TGI (%) [3, 6]: 85.02% | TIC [3, 6]: 14.98 | Tumor volumes (mm^3) (Day 23) [3, 6]: 179.60 mm^3 | Tumor volumes (mm^3) (Day 0) [3, 5]: 100.25 mm^3 | Tumor volumes (mm^3) (Day 0) [3, 6]: 100.06 mm^3 | Weight Change Rate (%) [4, 7]: +7.53% | Weight on Day 23 [4, 7]: 21.3 g | Weight Change Rate (%) [4, 8]: +12.32% | Weight on Day 23 [4, 8]: 22.4 g | Weight at the Initiation of Administration [4, 7]: 19.8 g | Weight at the Initiation of Administration [4, 8]: 20.0 g
